Results from patent publication US20200352923A1 (priority 2017, published 2020).

Test system: rat bladder muscle strips (detrusor)
Type: cell-based

## CN(C)C(=O)Oc1ccc[n+](C)c1 [pyridostigmine]
  drop in force from baseline after pyridostigmine: 13±6%
  recovery of the force drop: about 50%
